Laboratory results as given in patent US10280163B2 (BeiGene, Ltd., priority 2015, dated 2019).
Read-outs that look alike come from different tables or passages of the source.

Key:
Recombinant IDO1 = molecular target: T1, Recombinant IDO1 (Homo sapiens, UniProt P14902); experiment: IDO1 enzymatic assay; type: biochemical; details: 50 nM IDO1, 1.3 mM D-tryptophan, read-out: Enzyme IC50 (nM) IDO1
T1 construct: His tag (N); made in house; host or cells: E. coli
Experimental: Recombinant IDO1 was overexpressed and purified from E. coli cells with an N-terminal His tag. IDO1 enzymatic assay was carried out using a methodology similar to described in the literature (J. Biol. Chem. (1980), 255, 1339-1345.). The reaction mixture contains 50 nM IDO1, 1.3 mM D-tryptophan, 5 mM L-ascorbic acid, 6.25 μM methylene Blue, 0.4 mg/mL catalase and compound (or DMSO) in a buffer containing 50 mM potassium phosphate pH 7.5 and 0.1% BSA. After incubation at 24° C. for 1.5 hours, absorbance of the reaction mixture was continuously read at 321 nm to monitor the formation of N′-formylkynurenine by a FULOstar OMEGA plate reader (BMG LABTECH) for 1 hour. The enzymatic activity was determined by measuring the slope of the linear absorbance increase as a function of time. The IC50s are calculated based on remaining enzyme activity in the presence of increasing concentrations of compounds.

Recombinant TDO = molecular target: T2, Recombinant TDO (Homo sapiens, UniProt P48775); experiment: TDO enzymatic assay; type: biochemical; details: Table 1, 5-substituted imidazo[1,5-a]pyridines; 100 nM TDO, 0.5 mM L-tryptophan; read-out: Enzyme IC50 (nM) TDO
T2 construct: His tag (C); made in house; host or cells: E. coli
Experimental: Recombinant TDO was overexpressed and purified from E. coli cells with a C-terminal His tag. TDO enzymatic assay was performed using the same methodology as IDO1 enzymatic assay except that 100 nM TDO and 0.5 mM L-tryptophan (Km concentration) were used in the TDO assay.

[1] = molecular target: T3, cellular IDO1 in HeLa cells (Homo sapiens, UniProt P14902); experiment: HeLa cell-based IDO1 Kyn (kynurenine) production assay; details: IFN-γ 100 ng/mL, 48 hours
T3 construct: endogenous in cells; host or cells: HeLa cells (American Type Tissue Culture Collection), induced with human recombinant IFN-γ
Experimental: HeLa Cell-Based IDO1 Kyn (Kynurenine) Production Assay:
The inhibitory activity of IDO1 inhibitors is determined by using a colorimetric reaction to measure Kyn generated from L-Trp (L-Tryptophon) oxidation by cellular IDO1 in HeLa cells after induction of IDO1 by IFN-γ.
Hela cells were obtained from the American Type Tissue Culture Collection and recovered in 10% FBS-containing phenol red-free DMEM medium supplemented with 0.4 mM L-Trp. Cells were plated onto a 96-well plate (100 μl/well) at 8000 cells per well. Human recombinant IFN-γ (8901SC, CST) was added to cells (final concentration 100 ng/mL) to stimulate endogenous IDO1. Compounds at different concentrations diluted in dimethylsulfoxide (DMSO) were added simultaneously with IFN-γ. Cells were kept at 37° C. in a humidified incubator supplied with 5% CO2. After 48 hours of incubation, 100 μl supernatant from each well was removed to a new plate. The protein in the medium was precipitated with the addition of 8 μl 6N trichloroacetic acid. The plate was incubated at 60° C. for 45 min and then centrifugation at 2500 rpm for 10 min to remove sediments. 80 μl supernatants were carefully removed to a new clean plate and added with an equal volume of 2% 4-(Dimethylamino) benzaldehyde (D2004, sigma) dissolved in glacial acetic acid. The absorbance at 480 nm wavelength derived from Kyn was measured using a FULOstar OMEGA plate reader (BMG LABTECH). The IC50 for each compound was derived from fitting the dose-response data to the four-parameter logistic model by using Graphpad Prism software.

[2] = Table 1, 5-substituted imidazo[1,5-a]pyridines
[3] = Table 2, 8-substituted imidazo[1,5-a]pyridines

T1 sequence (P14902 whole entry): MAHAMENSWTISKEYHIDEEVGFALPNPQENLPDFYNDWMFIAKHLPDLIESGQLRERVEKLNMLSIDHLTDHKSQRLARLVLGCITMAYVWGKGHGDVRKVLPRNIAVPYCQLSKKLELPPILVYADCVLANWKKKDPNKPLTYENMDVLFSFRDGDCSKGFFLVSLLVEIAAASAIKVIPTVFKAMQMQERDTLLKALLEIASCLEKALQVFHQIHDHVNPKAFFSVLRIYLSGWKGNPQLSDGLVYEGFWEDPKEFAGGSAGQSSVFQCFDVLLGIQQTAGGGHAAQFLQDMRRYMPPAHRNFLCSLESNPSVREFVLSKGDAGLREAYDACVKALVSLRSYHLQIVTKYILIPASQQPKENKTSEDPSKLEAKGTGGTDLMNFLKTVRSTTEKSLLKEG
T3 sequence (P14902 whole entry): as above
T2 sequence (P48775 whole entry): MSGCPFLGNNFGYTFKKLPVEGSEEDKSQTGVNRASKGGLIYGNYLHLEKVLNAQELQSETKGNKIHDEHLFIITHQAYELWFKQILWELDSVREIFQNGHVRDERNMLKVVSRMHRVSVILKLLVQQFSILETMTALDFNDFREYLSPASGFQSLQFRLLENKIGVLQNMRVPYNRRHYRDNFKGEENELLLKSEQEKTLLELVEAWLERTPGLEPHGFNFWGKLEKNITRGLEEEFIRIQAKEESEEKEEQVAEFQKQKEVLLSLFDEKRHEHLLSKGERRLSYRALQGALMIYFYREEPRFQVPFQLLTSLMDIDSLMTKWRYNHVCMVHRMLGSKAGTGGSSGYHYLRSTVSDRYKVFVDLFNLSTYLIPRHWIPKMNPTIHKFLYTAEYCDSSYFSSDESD

Compound: OC(CC1CCCCC1)c1c(C2CC2)ccc2cncn12 (single isomer, unassigned) [Example A139a]
- IC50 (Recombinant IDO1; [2]): 11 nM
- IC50 (Recombinant TDO): 1800 nM

Compound: O[C@@H](c1c(C2CC2)ccc2cncn12)C1CC2CCC1C2 (stereo partly drawn) [Example A162b, (1R)-(bicyclo[2.2.1]heptan-2-yl)(6-cyclopropylimidazo[1,5-a]pyridin-5-yl)methanol]
- IC50 (Recombinant IDO1; [2]): 1600 nM
- EC50 [1, 2]: 6040 nM

Compound: OC(c1c(C(F)(F)F)ccn2cncc12)C1CCCCC1 (stereo not shown) [Example B111, Cyclohexyl(7-(trifluoromethyl)imidazo[1,5-a]pyridin-8-yl)methanol]
- IC50 (Recombinant IDO1; [3]): 85 nM
- EC50 [1, 3]: 415 nM

Compound: C=CC(O)c1c(C2CC2)ccn2cncc12 (stereo not shown) [Example B115, 1-(7-Cyclopropylimidazo[1,5-a]pyridin-8-yl)prop-2-en-1-ol]
- IC50 (Recombinant IDO1; [3]): 120 nM
- EC50 [1, 3]: > 10000 nM

Compound: O=C(OCc1ccccc1)N1CCCC(C(O)c2c(C3CC3)ccn3cncc23)C1 (stereo not shown) [Example B129, Benzyl-3-((7-cyclopropylimidazo[1,5-a]pyridin-8-yl)(hydroxy)methyl) piperidine-1-carboxylate]
- IC50 (Recombinant IDO1; [3]): 310 nM
- EC50 [1, 3]: > 10000 nM

Compound: OC(CC12CC3CC(CC(C3)C1)C2)c1c(C2CC2)ccn2cncc12 (stereo not shown) [Example B118, 2-(Adamantan-1-yl)-1-(7-cyclopropylimidazo[1,5-a]pyridin-8-yl)ethan-1-ol]
- IC50 (Recombinant IDO1; [3]): 280 nM
- EC50 [1, 3]: 179 nM

Compound: OC(c1c([C@H]2C[C@H]2F)ccn2cncc12)C1CCCCC1 (mixture of isomers) [Example B126b, cyclohexyl(7-(cis-2-fluorocyclopropyl)imidazo [1,5-a]pyridin-8-yl)methanol]
- IC50 (Recombinant IDO1; [3]): 340 nM
- EC50 [1, 3]: 676 nM

Compound: OC1CCC([C@@H](O)c2c(C3CC3)ccc3cncn23)CC1 (single isomer, unassigned) [Example A142c]
- IC50 (Recombinant IDO1; [2]): 2000 nM
- EC50 [1, 2]: > 10000 nM

Compound: O=C(NC1CC1)c1cccc(C(O)c2c(C3CC3)ccn3cncc23)c1 (stereo not shown) [Example B125, N-cyclopropyl-3-((7-cyclopropylimidazo[1,5-a]pyridin-8-yl)(hydroxy)methyl)benzamide]
- IC50 (Recombinant IDO1; [3]): 170 nM
- EC50 [1, 3]: 8500 nM

Compound: O[C@H](c1c(C2CC2)ccc2cncn12)C1CC2CCC1C2 (stereo partly drawn) [Example A162a, (1S)-(bicyclo[2.2.1]heptan-2-yl)(6-cyclopropylimidazo[1,5-a]pyridin-5-yl)methanol]
- IC50 (Recombinant IDO1; [2]): 11 nM
- EC50 [1, 2]: 8.8 nM

Compound: OC(c1c([C@H]2C[C@@H]2F)ccn2cncc12)C1CCCCC1 (single isomer, unassigned) [Example B128b, Cyclohexyl(7-((trans)-2-fluorocyclopropyl)imidazo[1,5-a]pyridin-8-yl)methanol]
- IC50 (Recombinant IDO1; [3]): 39000 nM
- EC50 [1, 3]: > 10000 nM

Compound: OC(CC1CCCCC1)c1c(C2CC2)ccn2cncc12 (single isomer, unassigned) [Example B110a]
- IC50 (Recombinant IDO1; [3]): 18 nM
- EC50 [1, 3]: 215 nM

Compound: CC(C)(C)c1ccn2cncc2c1C(O)C1CCCCC1 (stereo not shown) [Example B113, (7-(tert-Butyl)imidazo[1,5-a]pyridin-8-yl)(cyclohexyl)methanol]
- IC50 (Recombinant IDO1; [3]): 1300 nM
- EC50 [1, 3]: 9340 nM

Compound: OC(c1c(C2CC2)ccc2cncn12)C1CC1 (stereo not shown) [Example A137, cyclopropyl(6-cyclopropylimidazo[1,5-a]pyridin-5-yl)methanol]
- IC50 (Recombinant IDO1; [2]): 25 nM
- EC50 [1, 2]: 3760 nM

Compound: CC(C)c1ccn2cncc2c1C(O)[C@H]1CC[C@@H](O)CC1 (single isomer, unassigned) [Example B121d]
- IC50 (Recombinant IDO1; [3]): 46000 nM
- EC50 [1, 3]: > 10000 nM

Compound: OC(c1c(C2=CCCC2)ccc2cncn12)C1CCCCC1 (stereo not shown) [Example A157, cyclohexyl(6-(cyclopent-1-en-1-yl)imidazo[1,5-a]pyridin-5-yl)methanol]
- IC50 (Recombinant IDO1; [2]): 200 nM
- EC50 [1, 2]: 2680 nM

Compound: NS(=O)(=O)N1CCCC(C(O)c2c(C3CC3)ccn3cncc23)C1 (single isomer, unassigned) [Example B135a, 3-((7-Cyclopropylimidazo[1,5-a]pyridin-8-yl)(hydroxy)methyl)piperidine-1-sulfonamide]
- IC50 (Recombinant IDO1; [3]): 1100 nM
- EC50 [1, 3]: > 10000 nM

Compound: CC(O)(CC1CCCCC1)c1cccn2cncc12 (stereo not shown) [Example B009, 1-cyclohexyl-2-(imidazo[1,5-a]pyridin-8-yl)propan-2-ol]
- IC50 (Recombinant IDO1; [3]): 18000 nM
- EC50 [1, 3]: > 10000 nM

Compound: O=C(NC1CC1)c1cccc(C(O)c2c(C3CC3)ccc3cncn23)c1 (stereo not shown) [Example A160, N-cyclopropyl-3-((6-cyclopropylimidazo[1,5-a]pyridin-5-yl)(hydroxy)methyl)benzamide]
- IC50 (Recombinant IDO1; [2]): 81 nM
- EC50 [1, 2]: 5610 nM

Compound: O[C@H](c1c(C2CC2)ccn2cncc12)C1CC2CCC1C2 (single isomer, unassigned) [Example B122b]
- IC50 (Recombinant IDO1; [3]): 78 nM
- EC50 [1, 3]: 295 nM

Compound: FC(c1cc(Cl)cc2cncn12)C1CCCCC1 (stereo not shown) [Example A021, 7-chloro-5-(cyclohexylfluoromethyl)imidazo[1,5-a]pyridine]
- IC50 (Recombinant IDO1; [2]): 1800 nM
- EC50 [1, 2]: > 10000 nM

Compound: CC(C)(C)OC(=O)NCC(=O)N1CCCC(C(O)c2c(C3CC3)ccn3cncc23)C1 (stereo not shown) [Example B131, tert-Butyl (2-(3-((7-cyclopropylimidazo[1,5-a]pyridin-8-yl)(hydroxy)methyl)piperidin-1-yl)-2-oxoethyl) carbamate]
- IC50 (Recombinant IDO1; [3]): 1700 nM
- EC50 [1, 3]: > 10000 nM

Compound: OC1CCCC(C(O)c2c(C3CC3)ccc3cncn23)C1 (racemic) [Example A164a, 3-((6-Cyclopropylimidazo[1,5-a]pyridin-5-yl)(hydroxy)methyl)cyclohexan-1-ol]
- IC50 (Recombinant IDO1; [2]): 71 nM
- EC50 [1, 2]: 598 nM

Compound: OC(c1c([C@H]2C[C@@H]2F)ccn2cncc12)C1CCCCC1 (mixture of isomers) [Example B128a, Cyclohexyl(7-((trans)-2-fluorocyclopropyl)imidazo[1,5-a]pyridin-8-yl)methanol]
- IC50 (Recombinant IDO1; [3]): 100 nM
- EC50 [1, 3]: 184 nM

Compound: CC(C)c1ccn2cncc2c1C(O)C1CCC(O[Si](C)(C)C(C)(C)C)CC1 (stereo not shown) [Example B120, (4-((tert-Butyldimethylsilyl)oxy)cyclohexyl)(7-isopropylimidazo[1,5-a]pyridin-8-yl)methanol]
- IC50 (Recombinant IDO1; [3]): 790 nM
- EC50 [1, 3]: > 10000 nM

Compound: OC(CC1CCCCC1)c1c([C@H]2C[C@H]2F)ccn2cncc12 (mixture of isomers) [Example B127b, 2-Cyclohexyl-1-(7-(cis-2-fluorocyclopropyl)imidazo[1,5-a]pyridin-8-yl)ethan-1-ol]
- IC50 (Recombinant IDO1; [3]): 93 nM
- EC50 [1, 3]: 1130 nM

Compound: CC(=O)N1CCCC(C(O)c2c(C3CC3)ccn3cncc23)C1 (single isomer, unassigned) [Example B133a, 1-(3-((7-Cyclopropylimidazo[1,5-a]pyridin-8-yl)(hydroxy)methy)piperidin-1-yl)ethan-1-one]
- IC50 (Recombinant IDO1; [3]): 1900 nM
- EC50 [1, 3]: > 10000 nM

Compound: OC(c1ccc(F)cc1)c1cccc2cncn12 (stereo not shown) [Example A008, (4-fluorophenyl)(imidazo[1,5-a]pyridin-5-yl)methanol]
- IC50 (Recombinant IDO1; [2]): 2400 nM
- EC50 [1, 2]: > 10000 nM

Compound: CC(C)c1ccn2cncc2c1C(O)[C@H]1CC[C@H](O)CC1 (single isomer, unassigned) [Example B121b, (trans)-4-(Hydroxy(7-isopropylimidazo[1,5-a]pyridin-8-yl)methyl) cyclohexan-1-ol]
- IC50 (Recombinant IDO1; [3]): 21000 nM
- EC50 [1, 3]: > 10000 nM

Compound: CC(C)c1ccn2cncc2c1C(O)C1CCCCC1 (single isomer, unassigned) [Example B106a]
- IC50 (Recombinant IDO1; [3]): 23 nM
- EC50 [1, 3]: 129 nM

Compound: OC1CCC([C@@H](O)c2c(C3CC3)ccc3cncn23)CC1 (single isomer, unassigned) [Example A142d]
- IC50 (Recombinant IDO1; [2]): 9200 nM
- EC50 [1, 2]: > 10000 nM

Compound: OC(c1c(C2CC2)ccn2cncc12)C1CCC2CC2C1 (stereo not shown) [Example B140, bicyclo[4.1.0]heptan-3-yl(7-cyclopropylimidazo[1,5-a]pyridin-8-yl)methanol]
- IC50 (Recombinant IDO1; [3]): 71 nM
- EC50 [1, 3]: 147 nM
